From paper PMC8850444, “The lipid components of high-density lipoproteins (HDL) are essential for the binding and transportation of antimicrobial peptides in human serum” (Scientific Reports, 2022)

What was measured:
[1] = system: Escherichia coli K-12 (MG1655); format: cell-based; details: for repression of antimicrobial activity by human serum: E. coli 10^6 cfu/ml, 5% human serum (v/v) compared with PBS, mean ± SD n = 3
Protocol: The Gram-negative bacteria Escherichia coli K-12 (MG1655) was cultured and plated in/on Luria–Bertani broth/agar plate (Merck Millipore, Darmstadt, Germany). The bacteria were grown overnight, washed, and diluted 1:2000 in phosphate buffered saline (PBS), pH 7.4. Bacteria (ca. 1 × 10^6 colony-forming units, cfu/ml) was mixed with antimicrobial peptides (AMP) in 100 µl PBS and incubated at 37 °C. Serial dilutions of each AMP-treated bacteria in the presence of human sera, proteins or lipids were prepared and plated for determination of remaining viable cells (expressed as cfu). At least three independent experiments were performed for each assay to determine the mean value with standard deviation (SD)[31].
For all in vitro antimicrobial assays, the average value with standard deviation (SD) was determined from at least three independent experiments. Mann–Whitney test and Kruskal–Wallis tests were performed to determine the significance. For lipid quantification, the average value with standard deviation (SD) was determined from at least three independent experiments and One-way ANOVA test was performed to determine the significance of the difference in the measured values. P < 0.05 was considered to be statistically significant.

human albumin = details: cited from earlier work
human serum = assay: Band shift of AMPs in human serum on horizontal native PAGE; format: binding; details: AMP 4 µg in 10 µl diluted human serum, 5–40% (v/v), 8% horizontal native PAGE, Coomassie blue
Protocol: (§1) Various AMPs (4 µg each) were incubated with human serum, isolated components or lipid at the indicated concentrations at room temperature in 10 µl PC buffer (20 mM HEPES, pH7.4, 50 mM NaCl) for 30 min, subjected to horizontal native 8% polyacrylamide gel electrophoreses (PAGE), pH8.0/pH8.8, and stained with Coomassie Blue.

HDL = assay: Band shift of AMPs by HDL on horizontal native PAGE; format: binding, human; details: AMP 4 µg, agents 10 µg or lipids 4 µg in BSA, 8% horizontal native PAGE
Protocol: as §1

CC[C@H](C)[C@H](NC(=O)[C@H](CCCCN)NC(=O)[C@H](CCC(=O)O)NC(=O)[C@H](CCCCN)NC(=O)[C@H](CO)NC(=O)[C@H](CCCCN)NC(=O)[C@H](CCCNC(=N)N)NC(=O)[C@H](Cc1ccccc1)NC(=O)[C@H](Cc1ccccc1)NC(=O)[C@H](CC(=O)O)NC(=O)CNC(=O)[C@H](CC(C)C)NC(=O)[C@@H](N)CC(C)C)C(=O)NCC(=O)N[C@@H](CCCCN)C(=O)N[C@@H](CCC(=O)O)C(=O)N[C@@H](Cc1ccccc1)C(=O)N[C@@H](CCCCN)C(=O)N[C@@H](CCCNC(=N)N)C(=O)N[C@H](C(=O)N[C@H](C(=O)N[C@@H](CCC(N)=O)C(=O)N[C@@H](CCCNC(=N)N)C(=O)N[C@H](C(=O)N[C@@H](CCCCN)C(=O)N[C@@H](CC(=O)O)C(=O)N[C@@H](Cc1ccccc1)C(=O)N[C@@H](CC(C)C)C(=O)N[C@@H](CCCNC(=N)N)C(=O)N[C@@H](CC(N)=O)C(=O)N[C@@H](CC(C)C)C(=O)N[C@H](C(=O)N1CCC[C@H]1C(=O)N[C@@H](CCCNC(=N)N)C(=O)N[C@H](C(=O)N[C@@H](CCC(=O)O)C(=O)N[C@@H](CO)C(=O)O)[C@@H](C)O)C(C)C)[C@@H](C)CC)C(C)C)[C@@H](C)CC [LL37]
LC99 in 5% human serum ([1]; E. coli, cfu counting, 5% human serum, LC99 = lowest AMP concentration that kills 99% of the original inoculum, 37 °C): > 512 mg/L
LC99 in PBS ([1]; E. coli, cfu counting, PBS pH 7.4, LC99 = lowest AMP concentration that kills 99% of the original inoculum, 37 °C): 16 mg/L

CC(=O)CC(c1ccccc1)c1c(O)c2ccccc2oc1=O (centres unmarked) [warfarin]
fraction bound to human albumin (human albumin; human albumin drug binding site I (warfarin) and site II (ibuprofen)): more than 90%

Pleurocidin: antimicrobial peptide from Pleuronectes amertcanus (GWGSFFKKAAHVGKHVGKAALTHYL)
repression of antimicrobial activity by human serum [1]: not at all observed
fold increase of LC99 in 5% human serum over PBS ([1]; E. coli, LC99 in 5% human serum versus PBS): one
bactericidal activity in presence of purified S50, E5, Apo-AI, PC, SM, CO and HDL ([1]; E. coli, NRC12 16 mg/L, Pleurocidin 8 mg/L): resistant
band shift of AMP in human serum (human serum): not shifted
band shift by purified S50, E5, Apo-AI, PC, SM, CO and HDL (HDL): resistant

Polymyxin B
repression of antimicrobial activity by human serum [1]: not at all observed
band shift of AMP in human serum (human serum): not shifted

daptomycin
fraction bound and inhibited by albumin (human albumin; human serum): 90–94%
